≈ marks a conversion by molar mass, not a printed value.

In general, MIC refers to the lowest concentration that inhibits growth of the organism. A low value points to a more susceptible organism.

The experiment deals with Mycobacterium tuberculosis variant bovis BCG. Briefly: Antibacterial activity against Mycobacterium bovis BCG ATCC 35734 after 2 weeks by spot culture growth inhibition assay. The experiment is classed as functional. Particulars: ATCC 35734, 336 h.
As for `O=C(O)/C=C/c1ccc2c(c1)OCO2`, the MIC stood at 416 µM (≈ 79.9 µg/mL).
The molecule `CC(=O)Nc1ccccc1O` registered an MIC of 132 µM (≈ 20 µg/mL).
Regarding `COC(=O)/C=C/c1cccc(O)c1`, the MIC was 561 µM (≈ 100 µg/mL).
Regarding `CC(C)=CCC/C(C)=C/COc1ccc(/C=C/C(=O)O)cc1`, the MIC came to 134 µM (≈ 40.3 µg/mL).
`COC(=O)/C=C/c1ccc(OC/C=C(\C)CCC=C(C)C)cc1` yielded an MIC of 254 µM (≈ 79.9 µg/mL).
Take `COC(=O)/C=C/c1ccc(OCC=C(C)C)cc1`: the MIC was 60.9 µM (≈ 15 µg/mL).
Then `COC(=O)/C=C/c1cccc(OCC=C(C)C)c1`, with 244 µM (≈ 60.1 µg/mL).
In the case of `COC(=O)/C=C/c1ccccc1OCC=C(C)C`, the MIC is over 406 µM.
`CC(C)=CCOc1cccc(/C=C/C(=O)O)c1` registered an MIC of 258 µM (≈ 59.9 µg/mL).
In the case of `CC(C)=CCOc1ccccc1/C=C/C(=O)O`, the MIC was determined as 258 µM (≈ 59.9 µg/mL).
`CC(C)=CCOc1ccc(/C=C/C(=O)O)cc1` gave an MIC of 86.1 µM (≈ 20 µg/mL).
For `COC(=O)/C=C/c1ccccc1O`, the MIC is 112 µM (≈ 20 µg/mL).
With `O=C(O)/C=C/c1cccc(O)c1`, the MIC is 609 µM (≈ 100 µg/mL).
Then `CC(=O)Nc1ccc(O)cc1` [ACETAMINOPHEN], with over 661 µM; and `O=C(O)/C=C/c1ccccc1` [CINNAMIC ACID], with 405 µM (≈ 60 µg/mL).
`O=C(O)/C=C/c1ccc(O)cc1` [COUMARIC ACID] returned a minimum inhibitory concentration (MIC) of 366 µM (≈ 60.1 µg/mL).
Molecule `NNC(=O)c1ccncc1` [ISONIAZID] showed an MIC of 0.73 µM (≈ 0.1 µg/mL).
The value for `CC(=O)Nc1cccc(O)c1` [METACETAMOL] was over 661 µM; that for `COC(=O)/C=C/c1ccc(O)cc1` [METHYL P-HYDROXYCINNAMATE] was 337 µM (≈ 60 µg/mL).
In the case of `O=C(O)/C=C/c1ccccc1O` [O-COUMARIC ACID], the minimal inhibitory concentration (MIC) amounted to 244 µM (≈ 40.1 µg/mL).
Molecule `CO[C@H]1/C=C/O[C@@]2(C)Oc3c(C)c(O)c4c(O)c(c(/C=N/N5CCN(C)CC5)c(O)c4c3C2=O)NC(=O)/C(C)=C\C=C\[C@H](C)[C@H](O)[C@@H](C)[C@@H](O)[C@@H](C)[C@H](OC(C)=O)[C@@H]1C` [RIFAMPIN] returned an MIC of 0.0607 µM (≈ 0.05 µg/mL).

The record behind these values is ChEMBL document CHEMBL3132819, “2-Hydroxy-substituted cinnamic acids and acetanilides are selective growth inhibitors of Mycobacterium tuberculosis” (Medchemcomm, 2014).
